Reference: ChEMBL document CHEMBL1128595, “Synthesis and biological activity of 7-alkylidenecephems” (J Med Chem, 1995)

Target: Beta-lactamase (Enterobacter cloacae) (UniProt P05364)
Assay: The beta-lactamase inactivation partition ratio of the compound

Compound | Partition ratio
CC(=O)OCC1=C(C(=O)[O-])N2C(=O)/C(=C/c3ccccn3)[C@H]2S(=O)(=O)C1.[Na+] | 20
CC(=O)OCC1=C(C(=O)[O-])N2C(=O)C(=C=CC(C)(C)C)[C@H]2S(=O)(=O)C1.[Na+] | 12
